Source: patent publication US8987335B2, “Substituted (E)-N′-(1-phenylethylidene)benzohydrazide analogs as histone demethylase inhibitors” (University of Utah Research Foundation, priority 2011, dated 2015)

How the values were obtained:
MAO A = MAO A (Homo sapiens (Human), UniProt P21397); assay: Monoamine Oxidase assay (MAO-Glo), MAO A; type: biochemical
Method: (§1) Recombinant (expressed in baculovirus infected BTI insect cells) monoamine oxidase A and monoamine oxidase B (Catalog No. M7316 and M7441, respectively) were purchased from Sigma-Aldrich Co. LLC. […] MAO-Glo™ Assay Kit was purchased from Promega Corporation (Madison, Wis.).
(§2) Briefly, 6.25 μL of test compound was added to each well of a 384-well plate. Enzyme (either MAO A or B) was added (12.5 μL in 2× buffer containing 1 μg protein) and allowed to incubate for 5 minutes. Finally, 6.25 μL of 4×MAO substrate was added to each well. Following a one hour incubation, 25 μL of Luciferin detection reagent was added to each well, and incubated for 20 minutes. Luminescence was then measured on an Envision microplate reader.
(§3) IC50 values are determined using GraphPad Prism 5 software. The data were entered as an X-Y plot into the software as percent inhibition for each concentration of the drug. The concentration values of the drug were log transformed and the nonlinear regression was carried out using the “sigmoidal dose-response (variable slope)” option within the GraphPad software to model the data and calculate IC50 values.

MAO B = MAO B (Homo sapiens (Human), UniProt P27338); assay: Monoamine Oxidase assay (MAO-Glo), MAO B; type: biochemical
Method: as §1, §2, §3

LSD1 = LSD1 (Homo sapiens (Human), UniProt O60341); assay: LSD1 Histone Demethylase Assay (LSD1 Inhibitor Screening Assay Kit); type: biochemical; conditions: for LSD1 biochemical activity (in words): SAR discussion
Method: Briefly, test compounds were diluted to 20× the desired test concentration in 100% DMSO and 2.5 μL of the diluted drug sample was added to a black 384-well plate. The LSD1 enzyme stock was diluted 17-fold with assay buffer and 40 μM of the diluted LSD1 enzyme was added to the appropriate wells.
as §3

T-47D cells = assay: Cell Viability Assay (ATPlite), T-47D; type: cell-based; conditions: Homo sapiens, T47D, 96-hours of incubation, read-out: Cell Growth, IC50
Method: Cells were cultured according to the procedures provided. […] Cells were cultured at 37° C. and 5% CO2.
as §3

MDA-MB-235 = assay: Cell Viability Assay (ATPlite), MDA-MB-235; type: cell-based; conditions: 96-hours of incubation, read-out: Cell Growth, IC50
Method: Cancer cell lines were obtained from ATCC. Cells were cultured according to the procedures provided. In addition to the supplements indicated in Table 4, media were also supplemented with 1% penicillin/streptomycin (100 IU/mL penicillin and 100 μg/mL streptomycin). Cells were cultured at 37° C. and 5% CO2. ATCC is the American Type Culture Collection (Manassas, Va.).
Cell viability was determined using ATPlite™ Luminescence Assay System (PerkinElmer Inc., Waltham, Mass.) using the various cell-lines described above and in Table 4. Briefly, cells were seeded in 96-well plates and then treated with different concentrations of inhibitor (0.1% final DMSO concentration). After 96-hours of incubation, ATPlite detection reagent was added directly to the culture well. Luminescence was read 5 minutes later on an Envision microplate reader.

Chain of MAO B (P27338 whole entry): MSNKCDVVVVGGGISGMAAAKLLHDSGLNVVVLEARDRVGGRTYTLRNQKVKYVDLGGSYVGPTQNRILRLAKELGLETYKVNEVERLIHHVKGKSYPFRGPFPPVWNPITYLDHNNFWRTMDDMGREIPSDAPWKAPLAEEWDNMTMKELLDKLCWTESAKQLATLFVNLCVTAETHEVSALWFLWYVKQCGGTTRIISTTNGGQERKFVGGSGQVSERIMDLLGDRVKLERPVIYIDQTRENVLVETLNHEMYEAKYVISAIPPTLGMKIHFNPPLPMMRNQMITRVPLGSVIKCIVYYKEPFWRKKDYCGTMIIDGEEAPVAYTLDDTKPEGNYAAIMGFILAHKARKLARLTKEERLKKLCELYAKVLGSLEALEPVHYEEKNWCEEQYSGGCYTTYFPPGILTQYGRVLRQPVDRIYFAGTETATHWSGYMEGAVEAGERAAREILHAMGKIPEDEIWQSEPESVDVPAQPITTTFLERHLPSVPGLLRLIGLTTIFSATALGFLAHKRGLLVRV
Chain of MAO A (P21397 whole entry): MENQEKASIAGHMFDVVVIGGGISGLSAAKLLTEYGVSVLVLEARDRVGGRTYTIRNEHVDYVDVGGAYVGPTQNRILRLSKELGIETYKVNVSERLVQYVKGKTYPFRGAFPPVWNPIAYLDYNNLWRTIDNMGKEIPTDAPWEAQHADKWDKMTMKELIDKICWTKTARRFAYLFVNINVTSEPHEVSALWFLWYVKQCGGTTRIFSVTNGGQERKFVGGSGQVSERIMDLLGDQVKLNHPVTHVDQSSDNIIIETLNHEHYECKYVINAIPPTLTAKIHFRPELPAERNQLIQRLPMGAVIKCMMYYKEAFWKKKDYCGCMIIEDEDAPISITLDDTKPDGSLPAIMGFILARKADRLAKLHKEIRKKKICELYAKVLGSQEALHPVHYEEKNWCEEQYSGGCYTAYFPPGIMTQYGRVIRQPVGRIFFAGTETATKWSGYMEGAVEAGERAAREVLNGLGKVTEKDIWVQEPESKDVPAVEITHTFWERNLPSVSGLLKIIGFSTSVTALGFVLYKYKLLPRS

SMILES	LSD1 biochemical activity (in words) (LSD1)	IC50 (T-47D cells) [µM]	other results
O=C(N/N=C/c1ccccc1O)c1ccc(O)cc1 [Compound 1]	–	–	activity against MAO A (in words) (MAO A): no activity; activity against MAO B (in words) (MAO B): comparable activity to tranylcypromine
COc1ccc(Cl)cc1C(=O)NNC(=O)c1cc(S(=O)(=O)N2CCOCC2)ccc1F [Compound 6]	lack of biochemical activity	> 10	–
O=C(NNC(=O)c1cc(S(=O)(=O)N2CCOCC2)ccc1F)c1cccc(Cl)c1 [Compound 7]	–	> 10	–
CCN(CC)S(=O)(=O)c1ccc(F)c(C(=O)NNC(=O)c2ccc(C)cc2)c1 [Compound 8]	lower activity	> 10	–
C/C(=N\NC(=O)c1cccc(S(=O)(=O)N2CCOCC2)c1)c1cccc2ccccc12 [Compound 10]	lower activity	> 10	IC50 (LSD1): > 10 µM
C/C(=N\NC(=O)c1cccc(S(=O)(=O)N2CCOCC2)c1)c1cc(Cl)ccc1O [Compound 12, (E)-N′-(1-(5-chloro-2-hydroxyphenyl)ethylidene)-3-(morpholinosulfonyl)benzohydrazide]	–	–	IC50 (MAO A): > 300 µM; IC50 (MAO B): > 300 µM; IC50 (MDA-MB-235): 0.728 µM
C/C(=N\NC(=O)c1cccc(S(=O)(=O)N2CCOCC2)c1)c1ccnc(Cl)c1 [Compound 15, (E)-N′-(1-(2-chloropyridin-4-yl)ethylidene)-3-(morpholinosulfonyl)benzohydrazide]	drop in biochemical activity	> 10	–
C/C(=N\NC(=O)c1cccc(S(=O)(=O)N2CCOCC2)c1)c1cc(Cl)ccc1Cl [Compound 16, (E)-N′-(1-(2,5-dichlorophenyl)ethylidene)-3-(morpholinosulfonyl)benzohydrazide]	significant drop in activity	> 10	LSD1 biochemical activity (in words) (LSD1; listed as compound 16): activity was decreased
C/C(=N\NC(=O)c1ccc(Cl)c(Br)c1)c1cc(Cl)ccc1O [Compound 17, (E)-3-bromo-4-chloro-N′-(1-(5-chloro-2-hydroxyphenyl)ethylidene)benzohydrazide]	drop in biochemical activity	1.7	–
C/C(=N\NC(=O)c1cnc(Cl)c(Br)c1)c1cc(Cl)ccc1O [Compound 19, (E)-5-bromo-6-chloro-N′-(1-(5-chloro-2-hydroxyphenyl)ethylidene)nicotinohydrazide]	drop in biochemical activity	1.38	–
C/C(=N\NC(=O)c1cncc(Cl)c1)c1cc(Cl)ccc1O [Compound 20, (E)-5-chloro-N′-(1-(5-chloro-2-hydroxyphenyl)ethylidene)nicotinohydrazide]	drop in biochemical activity	0.27	–
CC/C(=N\NC(=O)c1cccc(S(=O)(=O)N2CCOCC2)c1)c1cc(Cl)ccc1O [Compound 21, (E)-N′-(1-(5-chloro-2-hydroxyphenyl)propylidene)-3-(morpholinosulfonyl)benzohydrazide]	–	0.616	–
C/C(=N\NC(=O)c1cccc(S(=O)(=O)N2CCOCC2)c1)c1cccnc1 [Compound 22, (E)-3-(morpholinosulfonyl)-N′-(1-(pyridin-3-yl)ethylidene)benzohydrazide]	drop in biochemical activity	–	–
C/C(=N\NC(=O)c1cncc(S(C)(=O)=O)c1)c1cc(Cl)ccc1O [Compound 24, (E)-N′-(1-(5-chloro-2-hydroxyphenyl)ethylidene)-5-(methylsulfonyl)nicotinohydrazide]	–	–	activity against MAO A (in words) (MAO A): no activity; activity against MAO B (in words) (MAO B): no activity
N[C@@H]1CC1c1ccccc1 (stereo partly drawn) [tranylcypromine, reference compound]	–	–	activity against MAO A (in words) (MAO A): exhibited activity; activity against MAO B (in words) (MAO B): exhibited activity
